Reference: ChEMBL document CHEMBL5360558, “Molecular design, synthesis and anticancer activity of new thiopyrano[2,3-d]thiazoles based on 5-hydroxy-1,4-naphthoquinone (juglone)” (Eur J Med Chem, 2023)
Calls of active or inactive are those of the source. No cut-off for these calls is given here.

How the values were obtained:
NCI-H522 [1] = experiment: Growth inhibition against human NCI-H522 cells assessed as total growth inhibitory concentration incubated for 48 hrs by sulforhodamine B spectrophotometric assay; assay type: functional
RPMI-8226 = experiment: Growth inhibition against human RPMI-8226 cells assessed as lethal concentration incubated for 48 hrs by sulforhodamine B spectrophotometric assay; assay type: functional; conditions: read-out: LC50 (the source's name)
MDA-MB-231 [2] = experiment: Induction of apoptosis in human MDA-MB-231 cells at 10 uM incubated for 24 hrs by Annexin-V-FITC/propidium iodide staining based flow cytometry analysis (reference value: 8.9%); assay type: functional
HOP-62 = experiment: Growth inhibition against human HOP-62 cells assessed as total growth inhibitory concentration incubated for 48 hrs by sulforhodamine B spectrophotometric assay; assay type: functional
RXF 393 = experiment: Growth inhibition against human RXF 393 cells assessed as lethal concentration incubated for 48 hrs by sulforhodamine B spectrophotometric assay; assay type: functional; conditions: read-out: LC50 (the source's name)
SW-620 = experiment: Growth inhibition against human SW620 cells assessed as total growth inhibitory concentration incubated for 48 hrs by sulforhodamine B spectrophotometric assay; assay type: functional
786-0 = experiment: Growth inhibition against human 786-0 cells assessed as total growth inhibitory concentration incubated for 48 hrs by sulforhodamine B spectrophotometric assay; assay type: functional
Hs-578T = experiment: Growth inhibition against human Hs-578T cells assessed as lethal concentration incubated for 48 hrs by sulforhodamine B spectrophotometric assay; assay type: functional; conditions: read-out: LC50 (the source's name)
NCI-H226 = experiment: Growth inhibition of human NCI-H226 cells incubated for 48 hrs by sulforhodamine B spectrophotometric assay; assay type: functional
ACHN = experiment: Growth inhibition of human ACHN cells incubated for 48 hrs by sulforhodamine B spectrophotometric assay; assay type: functional
MDA-MB-231 [3] = experiment: Induction of apoptosis in human MDA-MB-231 cells assessed as increase in caspase-8 level at 10 uM incubated for 24 hrs by flow cytometry analysis; assay type: functional
[4] = Antileukemic activity against human CLL cell assessed as cell growth inhibition incubated for 72 hrs in presence of BST by MTT assay; assay type: functional, cell-based
CCRF-CEM [5] = experiment: Induction of cell cycle arrest in human CCRF-CEM cells assessed as accumulation of cells at G0/G1 phase at 4.14 uM incubated for 24 hrs by propidium iodide staining based flow cytometry analysis (reference value: 38.68 +/- 0.75%); assay type: functional
SK-MEL-28 = experiment: Growth inhibition against human SK-MEL-28 cells assessed as lethal concentration incubated for 48 hrs by sulforhodamine B spectrophotometric assay; assay type: functional; conditions: read-out: LC50 (the source's name)
[6] = Antileukemic activity against human CLL cell assessed as cell growth inhibition incubated for 72 hrs by MTT assay; assay type: functional, cell-based
SNB-19 = experiment: Growth inhibition against human SNB-19 cells assessed as lethal concentration incubated for 48 hrs by sulforhodamine B spectrophotometric assay; assay type: functional; conditions: read-out: LC50 (the source's name)
[7] = Cytotoxicity against human HaCaT cells assessed as cell growth inhibition incubated for 72 hrs by MTT assay; assay type: toxicity, cell-based; conditions: HaCaT cells
SK-MEL-2 [8] = experiment: Growth inhibition against human SK-MEL-2 cells assessed as lethal concentration incubated for 48 hrs by sulforhodamine B spectrophotometric assay; assay type: functional; conditions: read-out: LC50 (the source's name)
Malme-3M = experiment: Growth inhibition of human Malme-3M cells incubated for 48 hrs by sulforhodamine B spectrophotometric assay; assay type: functional
HCC 2998 = experiment: Growth inhibition of human HCC 2998 cells incubated for 48 hrs by sulforhodamine B spectrophotometric assay; assay type: functional
MOLT-4 = experiment: Growth inhibition against human MOLT-4 cells assessed as total growth inhibitory concentration incubated for 48 hrs by sulforhodamine B spectrophotometric assay; assay type: functional
MDA-MB-231 [9] = experiment: Induction of apoptosis in human MDA-MB-231 cells at 5 uM incubated for 24 hrs by Annexin-V-FITC/propidium iodide staining based flow cytometry analysis (reference value: 8.9%); assay type: functional
SK-MEL-2 [10] = experiment: Growth inhibition of human SK-MEL-2 cells incubated for 48 hrs by sulforhodamine B spectrophotometric assay; assay type: functional
U-251 = experiment: Growth inhibition of human U-251 cells incubated for 48 hrs by sulforhodamine B spectrophotometric assay; assay type: functional
CCRF-CEM [11] = experiment: Induction of cell cycle arrest in human CCRF-CEM cells assessed as DNA synthesis at 20.7 uM incubated for 2.5 hrs by BrdU incorporation based flow cytometry analysis (reference value: 42.4 +/- 0.66%); assay type: functional
A498 = experiment: Growth inhibition against human A498 cells assessed as total growth inhibitory concentration incubated for 48 hrs by sulforhodamine B spectrophotometric assay; assay type: functional
MDA-MB-435 = experiment: Growth inhibition against human MDA-MB-435 cells assessed as total growth inhibitory concentration incubated for 48 hrs by sulforhodamine B spectrophotometric assay; assay type: functional
SK-OV-3 [12] = experiment: Growth inhibition against human SK-OV-3 cells assessed as total growth inhibitory concentration incubated for 48 hrs by sulforhodamine B spectrophotometric assay; assay type: functional
LOX IMVI = experiment: Growth inhibition against human LOX IMVI cells assessed as total growth inhibitory concentration incubated for 48 hrs by sulforhodamine B spectrophotometric assay; assay type: functional
BT-549 = experiment: Growth inhibition against human BT-549 cells assessed as total growth inhibitory concentration incubated for 48 hrs by sulforhodamine B spectrophotometric assay; assay type: functional
IGROV-1 = experiment: Growth inhibition against human IGROV-1 cells assessed as total growth inhibitory concentration incubated for 48 hrs by sulforhodamine B spectrophotometric assay; assay type: functional
SF-268 = experiment: Growth inhibition of human SF-268 cells incubated for 48 hrs by sulforhodamine B spectrophotometric assay; assay type: functional
UACC-257 = experiment: Growth inhibition of human UACC-257 cells incubated for 48 hrs by sulforhodamine B spectrophotometric assay; assay type: functional
KB 3-1 [13] = experiment: Induction of apoptosis in human KB 3-1 cells assessed as increase in calnexin protein expression at 0.5 to 5 uM incubated for 3 hrs by Western blotting assay; assay type: functional, cell-based; conditions: dose 0.5-5 µM
SK-MEL-5 = experiment: Growth inhibition against human SK-MEL-5 cells assessed as lethal concentration incubated for 48 hrs by sulforhodamine B spectrophotometric assay; assay type: functional; conditions: read-out: LC50 (the source's name)
CCRF-CEM [14] = experiment: Induction of cell cycle arrest in human CCRF-CEM cells assessed as RNA synthesis at 4.14 uM incubated for 3 hrs by […] incorporation based flow cytometry analysis (reference value: 31.8 +/- 1.17%); assay type: functional
MDA-MB-468 = experiment: Growth inhibition against human MDA-MB-468 cells assessed as total growth inhibitory concentration incubated for 48 hrs by sulforhodamine B spectrophotometric assay; assay type: functional
PC-3 = experiment: Growth inhibition of human PC-3 cells incubated for 48 hrs by sulforhodamine B spectrophotometric assay; assay type: functional
KB 3-1 [15] = experiment: Cytotoxicity against human KB 3-1 cells assessed as cell growth inhibition incubated for 72 hrs by MTT assay; assay type: functional, cell-based; conditions: KB 3-1, 72 h
SN12C = experiment: Growth inhibition of human SN12C cells incubated for 48 hrs by sulforhodamine B spectrophotometric assay; assay type: functional
NCI-H522 [16] = experiment: Growth inhibition against human NCI-H522 cells assessed as lethal concentration incubated for 48 hrs by sulforhodamine B spectrophotometric assay; assay type: functional; conditions: read-out: LC50 (the source's name)
SK-OV-3 [17] = experiment: Growth inhibition of human SK-OV-3 cells incubated for 48 hrs by sulforhodamine B spectrophotometric assay; assay type: functional
KB 3-1 [18] = experiment: Induction of apoptosis in human KB 3-1 cells assessed as increase in BIP protein expression at 0.5 to 5 uM incubated for 3 hrs by Western blotting assay; assay type: functional, cell-based; conditions: dose 0.5-5 µM

SMILES: O=C1C2=C(C(=O)c3c(O)cccc31)C(c1ccco1)c1sc(=O)[nH]c1S2 (stereo not drawn)
- TGI (NCI-H522 [1]): 6.99 µM
- CC50 (RPMI-8226): > 100 µM
- Activity (MDA-MB-231 [2]): 28.2%
- TGI (HOP-62): 3.74 µM
- CC50 (RXF 393): 20.1 µM
- TGI (SW-620): 10.5 µM
- TGI (786-0): 24.2 µM
- CC50 (Hs-578T): > 100 µM
- GI50 (NCI-H226): 2.18 µM
- GI50 (ACHN): 4.08 µM
- Activity (MDA-MB-231 [3]): 62.7%
- IC50 [4]: 8.24 µM
- Activity (CCRF-CEM [5]): 34.34%
- CC50 (SK-MEL-28): 7.42 µM
- IC50 [6]: > 50 µM
- CC50 (SNB-19): 26.1 µM
- IC50 at 72 h [7]: 37.2 µM
- CC50 (SK-MEL-2 [8]): 52.9 µM
- GI50 (Malme-3M): 0.75 µM
- GI50 (HCC 2998): 2.5 µM
- TGI (MOLT-4): 9.88 µM
- Activity (MDA-MB-231 [9]): 11.7%
- GI50 (SK-MEL-2 [10]): 3.51 µM
- GI50 (U-251): 3.07 µM
- Activity (CCRF-CEM [11]): 0.9%
- TGI (A498): 9.69 µM
- TGI (MDA-MB-435): 2.47 µM
- TGI (SK-OV-3 [12]): 29.6 µM
- TGI (LOX IMVI): 7.55 µM
- TGI (BT-549): 3.19 µM
- TGI (IGROV-1): 6.14 µM
- GI50 (SF-268): 3.48 µM
- GI50 (UACC-257): 1.57 µM
- Activity (KB 3-1 [13]): inactive
- CC50 (SK-MEL-5): 5.68 µM
- Activity (CCRF-CEM [14]): 23.46%
- TGI (MDA-MB-468): 6.59 µM
- GI50 (PC-3): 2.75 µM
- IC50 (KB 3-1 [15]): 0.75 µM
- GI50 (SN12C): 1.74 µM
- CC50 (NCI-H522 [16]): 26.4 µM
- GI50 (SK-OV-3 [17]): 15.5 µM
- Activity (KB 3-1 [18]): inactive
